Read-outs that look alike come from different tables or passages of the source.
Legend:
[1] = assay type: in vivo, human
Method: Placement of physiologic monitoring sensors, intravenous fluids, supplemental oxygen (4 l/min) and optional oral diazepam sedation (5-10 mg) is initiated prior to treatment. Patients receive 0.85 to 1.0 liter of intravenous (IV) 5% dextrose in 0.25 normal saline per hour alternated with 5% dextrose in 0.5 normal saline plus 7.5 to 10 meq of KCl per liter to insure a urinary output of no less than 1 ml/kg/hr. […] Two hours after treatment and 48 hours post-treatment, serum chemistries and hematologic profiles are repeated. A typical patient flow chart is depicted in FIG. 14.
Pretreatment protocol: the patient was given 10 mg diazepam by mouth and dressed into a modified wet suit. The wet suit was cut lengthwise at the arms and legs. Velcro strappings were attached at the cuttings for closure, rapid removal or exposure of the limb(s). After placement of monitoring sensors, they were started on IV fluids of 5% dextrose, 0.5 normal saline with 7 meq K^+, infused at an initial rate of 12 cc/kg/hr. Evaporative heat loss from the head was minimized by a plastic shower cap and towels. A 401AC temperature probe (YSI Incorporated, Yellow Springs, Ohio) was inserted 11 cm. into the rectum. […] A TEEM 100 Metabolic Analysis System (AeroSport Inc., Ann Arbor, Mich.), with a modified face mask and oxygen delivery system (38-40% 02 saturation) for patient comfort and increased accuracy, was attached to the patient. Oxygen consumption (V02), carbon dioxide production (VC02), expired air volume (VE), heart rate (HR), and Kcal of heat produced were measured in 20 second intervals and extrapolated to minute or hourly rates.
Pretreatment protocol: all medications were stopped 2 weeks prior to treatment. The patient refused taking diazepam, placement of a Foley catheter and oxygen face mask. They dressed themself into a dry cold water immersion suit (Stearns, ISS-590I, Universal Adult) designed to prevent heat loss and modified for easy placement of physiologic monitors. Equipment for measurement of heart rate, temperature, carbon dioxide production and Kcal of heat produced were conducted as outlined in Example 1. An oral breathing tube was used to measure V02 from room air. Urine output was measured when the patient voluntarily urinated through a “Texas” catheter (superficial condom tightly fitted around the head of the penis with tubing connected to urine collection bag). The patient was informed that hyperthermia would be administered as tolerated by their stamina and monitored clinical parameters, not to exceed 5 hours, on a daily or every other day basis, for a total of 5 sessions.
Pretreatment protocol: the evening prior treatment the patient was instructed not to eat and dress in cotton undergarments. Approximately 4 hours prior to treatment 2 mg alprazolam was administered by mouth. The patient dressed themself into a dry cold water immersion suit (Stearns, previously described) with headgear. Monitoring sensors, including EKG display, IV fluids and Foley catheter were attached and the suit was zipped closed. The patient opted for oxygen supplementation. The modified face mask was connected to the TEEM 100 metabolic Analysis System for V02 measurements. Data was recorded as previously described.
Pretreatment protocol: the patient was transfused with three units of packed red blood cells. A Foley catheter was inserted on each day of treatment. They were covered in a water soaked blanket containing a polyethylene lining. A shower cap with towels was used to prevent heat loss from the head. Intravenous lines were placed into both arms with 19 gauge intracaths. EKG, heart rate, rectal thermistor, and V02 monitors were attached. Oxygen supplemented facemask and equipment was attached and data monitored as previously described under Example 1.
Pretreatment protocol: the patient was transfused with 2 units of packed red blood cells 48 hours prior to undergoing treatment. Intravenous fluids (Lactated Ringer's solution) were administered at a rate of 100 cc/hour. […]

[2] = cited from earlier work
hepatocyte = conditions: in less than 6 minutes after the hormonal action of glucagon; cited from earlier work
hepatitis C virus = assay: DNP with interferon-alpha, chronic hepatitis C (Example 10); assay type: in vivo, human; conditions: patient history

Q: For `CN(C)c1ccc2nc3ccc(=[N+](C)C)cc-3sc2c1` [methylene blue], which VO2 ([1]; Example 9, after methylene blue 2 mg/kg infusion, on DNP 3 mg/kg) is on record?
A: Its VO2 is 450-500 cc/minute.

Q: For `NCCc1ccc(O)c(O)c1` [dopamine], which V02 ([1]; human, in vivo) is on record?
A: The V02 was 680-710 cc/min.

Q: Which half-life ([2]; in vivo) does the source give for `Oc1ccc(CCCCNC[C@H](O)c2ccc(O)c(O)c2)cc1` [arbutamine] here?
A: The half-life was 10 min.

Q: Which “stimulation of hepatocyte uncoupled V02” value (hepatocyte) does the source give for glucagon here?
A: Its value is “up to 100%”.

Q: And the half-life ([2]; in plasma)?
A: The half-life was 9 min.

Q: For `CNC(C)(C)Cc1ccccc1.CNC(C)(C)Cc1ccccc1.O=S(=O)(O)O` [Mephenteramine sulfate], which heart rate ([1]; Example 4, ten minutes after 30 mg intramuscular, before DNP) is on record?
A: The heart rate was 96.

Q: What about the V02 ([1]; Example 4, ten minutes after 30 mg intramuscular, before DNP, from 250) of the same compound?
A: The V02 was 320 cc/min.

Q: Which half-life ([2]; in vivo) does the source give for `NC(=O)CC[C@@H]1NC(=O)[C@H](Cc2ccccc2)NC(=O)[C@H](Cc2ccc(O)cc2)NC(=O)[C@@H](N)CSSC[C@@H](C(=O)N2CCC[C@H]2C(=O)N[C@@H](CCCN=C(N)N)C(=O)NCC(N)=O)NC(=O)[C@H](CC(N)=O)NC1=O` [vasopressin] here?
A: The half-life was 5 min.

Q: Which results are given for `NC[C@H](O)c1ccc(O)c(O)c1` [Norepinephrine bitartrate (Levophed), Norepinephrine bitartrate]?
A: heart rate ([1]; Example 2, about 1 minute after vasopressor IV drip 1 microgram/min on DNP, from 90): 100; V02 ([1]; Example 2, about 1 minute after vasopressor IV drip on DNP): 0.85 L/min; core body temperature ([1]; Example 2, within 20 minutes of vasopressor on DNP): 41.5 °C

Q: Which HCV-RNA (hepatitis C virus; after 6 months of interferon alpha-2b with ribavirin, before relapse) does the source give for interferon alpha-2b here?
A: The HCV-RNA was “undetectable”.

Q: And the hemoglobin concentration (hepatitis C virus; after 12 weeks of interferon alpha-2b with ribavirin, anemia)?
A: Its hemoglobin concentration is 9.2 g/deciliter.

Source: patent US7635722B1, “Chemical induced intracellular hyperthermia” (priority 1998, dated 2009)
